{"source": "ChEMBL document CHEMBL1201862", "about": "“PubChem BioAssay data set” (2004)", "experiment_in_all_cases": "inhibition of tumour cell growth, NCI panel, 48 h", "key": {"HOP-62": {"tested_on": "HOP-62"}, "ACHN": {"tested_on": "ACHN"}, "HT-29": {"tested_on": "HT-29"}, "HL-60": {"tested_on": "HL-60"}, "HCT-15": {"tested_on": "HCT-15"}, "K562": {"tested_on": "K562"}, "TK-10": {"tested_on": "TK-10"}, "NCI-H460": {"tested_on": "NCI-H460"}, "OVCAR-8": {"tested_on": "OVCAR-8"}, "MOLT-4": {"tested_on": "MOLT-4"}, "SNB-75": {"tested_on": "SNB-75"}, "SK-MEL-2": {"tested_on": "SK-MEL-2"}, "CAKI-1": {"tested_on": "CAKI-1"}, "SR": {"tested_on": "SR"}, "MDA-N": {"tested_on": "MDA-N"}, "OVCAR-4": {"tested_on": "OVCAR-4"}, "SK-MEL-28": {"tested_on": "SK-MEL-28"}, "Malme-3M": {"tested_on": "Malme-3M"}, "NCI-H226": {"tested_on": "NCI-H226"}, "SF-295": {"tested_on": "SF-295"}, "MCF7": {"tested_on": "MCF7"}, "SF-539": {"tested_on": "SF-539"}, "PC-3": {"tested_on": "PC-3"}, "CCRF-CEM": {"tested_on": "CCRF-CEM"}, "IGROV-1": {"tested_on": "IGROV-1"}, "BT-549": {"tested_on": "BT-549"}, "SN12C": {"tested_on": "SN12C"}, "SF-268": {"tested_on": "SF-268"}, "NCI/ADR-RES": {"tested_on": "NCI/ADR-RES"}, "OVCAR-3": {"tested_on": "OVCAR-3"}, "UO-31": {"tested_on": "UO-31"}, "UACC-62": {"tested_on": "UACC-62"}, "HCT-116": {"tested_on": "HCT-116"}, "OVCAR-5": {"tested_on": "OVCAR-5"}, "SK-OV-3": {"tested_on": "SK-OV-3"}, "SW-620": {"tested_on": "SW-620"}, "UACC-257": {"tested_on": "UACC-257"}, "NCI-H23": {"tested_on": "NCI-H23"}, "A549": {"tested_on": "A549"}, "COLO 205": {"tested_on": "COLO 205"}, "RXF 393": {"tested_on": "RXF 393"}, "RPMI-8226": {"tested_on": "RPMI-8226"}, "DU-145": {"tested_on": "DU-145"}, "KM12": {"tested_on": "KM12"}, "U-251": {"tested_on": "U-251"}, "HCC 2998": {"tested_on": "HCC 2998"}, "HOP-92": {"tested_on": "HOP-92"}, "786-0": {"tested_on": "786-0"}, "NCI-H522": {"tested_on": "NCI-H522"}, "EKVX": {"tested_on": "EKVX"}, "SNB-19": {"tested_on": "SNB-19"}, "SK-MEL-5": {"tested_on": "SK-MEL-5"}, "M14": {"tested_on": "M14"}, "MDA-MB-435": {"tested_on": "MDA-MB-435"}, "LOX IMVI": {"tested_on": "LOX IMVI"}}, "note": "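Method: 48-hour compound exposure of cells in 96-well plates, five concentrations, linear interpolation of endpoints. GI50 is the concentration that inhibits growth by half.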 The source made the active and inactive calls. Cut-off read from the data, not from the text of the source: active = GI50 up to about 1.1 µM and inactive = higher."}
{"smiles": "Cc1cccc2nc3n(c12)C(=O)c1ccccc1-3", "values": [{"measurement": "GI50", "setting": "HOP-62", "value": "> 100 µM (inactive)"}, {"measurement": "GI50", "setting": "ACHN", "value": "> 100 µM (inactive)"}, {"measurement": "GI50", "setting": "HT-29", "value": "> 100 µM (inactive)"}, {"measurement": "GI50", "setting": "HL-60", "value": "> 100 µM (inactive)"}, {"measurement": "GI50", "setting": "HCT-15", "value": "> 100", "unit": "µM"}, {"measurement": "GI50", "setting": "K562", "value": "> 100 µM (inactive)"}, {"measurement": "GI50", "setting": "TK-10", "value": "> 100 µM (inactive)"}, {"measurement": "GI50", "setting": "NCI-H460", "value": "> 100 µM (inactive)"}, {"measurement": "GI50", "setting": "OVCAR-8", "value": "> 100 µM (inactive)"}, {"measurement": "GI50", "setting": "MOLT-4", "value": "> 100 µM (inactive)"}, {"measurement": "GI50", "setting": "SNB-75", "value": "> 100 µM (inactive)"}, {"measurement": "GI50", "setting": "SK-MEL-2", "value": "> 100 µM (inactive)"}, {"measurement": "GI50", "setting": "CAKI-1", "value": "> 100 µM (inactive)"}, {"measurement": "GI50", "setting": "SR", "value": "> 100 µM (inactive)"}, {"measurement": "GI50", "setting": "MDA-N", "value": "43.2 µM (inactive)"}, {"measurement": "GI50", "setting": "OVCAR-4", "value": "> 100 µM (inactive)"}, {"measurement": "GI50", "setting": "SK-MEL-28", "value": "> 100 µM (inactive)"}, {"measurement": "GI50", "setting": "Malme-3M", "value": "> 100 µM (inactive)"}, {"measurement": "GI50", "setting": "NCI-H226", "value": "> 100 µM (inactive)"}, {"measurement": "GI50", "setting": "SF-295", "value": "49.9 µM (inactive)"}, {"measurement": "GI50", "setting": "MCF7", "value": "> 100 µM (inactive)"}, {"measurement": "GI50", "setting": "SF-539", "value": "> 100 µM (inactive)"}, {"measurement": "GI50", "setting": "PC-3", "value": "> 100 µM (inactive)"}, {"measurement": "GI50", "setting": "CCRF-CEM", "value": "> 100 µM (inactive)"}, {"measurement": "GI50", "setting": "IGROV-1", "value": "> 100 µM (inactive)"}, {"measurement": "GI50", "setting": "BT-549", "value": "> 100 µM (inactive)"}, {"measurement": "GI50", "setting": "SN12C", "value": "> 100 µM (inactive)"}, {"measurement": "GI50", "setting": "SF-268", "value": "> 100 µM (inactive)"}, {"measurement": "GI50", "setting": "NCI/ADR-RES", "value": "> 100 µM (inactive)"}, {"measurement": "GI50", "setting": "OVCAR-3", "value": "> 100 µM (inactive)"}, {"measurement": "GI50", "setting": "UO-31", "value": "> 100 µM (inactive)"}, {"measurement": "GI50", "setting": "UACC-62", "value": "> 100 µM (inactive)"}, {"measurement": "GI50", "setting": "HCT-116", "value": "> 100 µM (inactive)"}, {"measurement": "GI50", "setting": "OVCAR-5", "value": "> 100 µM (inactive)"}, {"measurement": "GI50", "setting": "SK-OV-3", "value": "> 100 µM (inactive)"}, {"measurement": "GI50", "setting": "SW-620", "value": "> 100 µM (inactive)"}, {"measurement": "GI50", "setting": "UACC-257", "value": "> 100 µM (inactive)"}, {"measurement": "GI50", "setting": "NCI-H23", "value": "> 100 µM (inactive)"}, {"measurement": "GI50", "setting": "A549", "value": "> 100 µM (inactive)"}, {"measurement": "GI50", "setting": "COLO 205", "value": "> 100 µM (inactive)"}, {"measurement": "GI50", "setting": "RXF 393", "value": "> 100 µM (inactive)"}, {"measurement": "GI50", "setting": "RPMI-8226", "value": "> 100 µM (inactive)"}, {"measurement": "GI50", "setting": "DU-145", "value": "44.4 µM (inactive)"}, {"measurement": "GI50", "setting": "KM12", "value": "> 100 µM (inactive)"}, {"measurement": "GI50", "setting": "U-251", "value": "> 100 µM (inactive)"}, {"measurement": "GI50", "setting": "HCC 2998", "value": "> 100 µM (inactive)"}, {"measurement": "GI50", "setting": "HOP-92", "value": "> 100 µM (inactive)"}, {"measurement": "GI50", "setting": "786-0", "value": "> 100 µM (inactive)"}, {"measurement": "GI50", "setting": "NCI-H522", "value": "> 100 µM (inactive)"}, {"measurement": "GI50", "setting": "EKVX", "value": "91.4 µM (inactive)"}, {"measurement": "GI50", "setting": "SNB-19", "value": "> 100 µM (inactive)"}]}
{"smiles": "NS(=O)(=O)c1ccc(-n2c(-c3cccs3)nc3ccc(I)cc3c2=O)cc1", "values": [{"measurement": "GI50", "setting": "HOP-62", "value": "30.4 µM (inactive)"}, {"measurement": "GI50", "setting": "ACHN", "value": "21.4 µM (inactive)"}, {"measurement": "GI50", "setting": "HT-29", "value": "31.7 µM (inactive)"}, {"measurement": "GI50", "setting": "HL-60", "value": "20.6 µM (inactive)"}, {"measurement": "GI50", "setting": "HCT-15", "value": 20.9, "unit": "µM"}, {"measurement": "GI50", "setting": "TK-10", "value": "25.4 µM (inactive)"}, {"measurement": "GI50", "setting": "NCI-H460", "value": "25.5 µM (inactive)"}, {"measurement": "GI50", "setting": "OVCAR-8", "value": "31.4 µM (inactive)"}, {"measurement": "GI50", "setting": "MOLT-4", "value": "52.8 µM (inactive)"}, {"measurement": "GI50", "setting": "SNB-75", "value": "37.7 µM (inactive)"}, {"measurement": "GI50", "setting": "SK-MEL-5", "value": "23.7 µM (inactive)"}, {"measurement": "GI50", "setting": "CAKI-1", "value": "19.4 µM (inactive)"}, {"measurement": "GI50", "setting": "M14", "value": "23.7 µM (inactive)"}, {"measurement": "GI50", "setting": "SR", "value": "35 µM (inactive)"}, {"measurement": "GI50", "setting": "MDA-N", "value": "33.3 µM (inactive)"}, {"measurement": "GI50", "setting": "OVCAR-4", "value": "24.7 µM (inactive)"}, {"measurement": "GI50", "setting": "SK-MEL-28", "value": "17.3 µM (inactive)"}, {"measurement": "GI50", "setting": "Malme-3M", "value": "18.3 µM (inactive)"}, {"measurement": "GI50", "setting": "MDA-MB-435", "value": "18.9 µM (inactive)"}, {"measurement": "GI50", "setting": "NCI-H226", "value": "27.4 µM (inactive)"}, {"measurement": "GI50", "setting": "SF-295", "value": "25.4 µM (inactive)"}, {"measurement": "GI50", "setting": "MCF7", "value": "23.3 µM (inactive)"}, {"measurement": "GI50", "setting": "PC-3", "value": "26.6 µM (inactive)"}, {"measurement": "GI50", "setting": "IGROV-1", "value": "21.7 µM (inactive)"}, {"measurement": "GI50", "setting": "BT-549", "value": "16.3 µM (inactive)"}, {"measurement": "GI50", "setting": "SN12C", "value": "30.3 µM (inactive)"}, {"measurement": "GI50", "setting": "SF-268", "value": "28.2 µM (inactive)"}, {"measurement": "GI50", "setting": "NCI/ADR-RES", "value": "29.1 µM (inactive)"}, {"measurement": "GI50", "setting": "OVCAR-3", "value": "16 µM (inactive)"}, {"measurement": "GI50", "setting": "UO-31", "value": "20 µM (inactive)"}, {"measurement": "GI50", "setting": "UACC-62", "value": "17.9 µM (inactive)"}, {"measurement": "GI50", "setting": "HCT-116", "value": "17.3 µM (inactive)"}, {"measurement": "GI50", "setting": "OVCAR-5", "value": "24.6 µM (inactive)"}, {"measurement": "GI50", "setting": "SK-OV-3", "value": "22.6 µM (inactive)"}, {"measurement": "GI50", "setting": "SW-620", "value": "37.9 µM (inactive)"}, {"measurement": "GI50", "setting": "UACC-257", "value": "0.0522 µM (active)"}, {"measurement": "GI50", "setting": "NCI-H23", "value": "25.8 µM (inactive)"}, {"measurement": "GI50", "setting": "A549", "value": "18.7 µM (inactive)"}, {"measurement": "GI50", "setting": "COLO 205", "value": "19.7 µM (inactive)"}, {"measurement": "GI50", "setting": "LOX IMVI", "value": "18.4 µM (inactive)"}, {"measurement": "GI50", "setting": "RXF 393", "value": "28.2 µM (inactive)"}, {"measurement": "GI50", "setting": "DU-145", "value": "18.8 µM (inactive)"}, {"measurement": "GI50", "setting": "KM12", "value": "24.1 µM (inactive)"}, {"measurement": "GI50", "setting": "U-251", "value": "20 µM (inactive)"}, {"measurement": "GI50", "setting": "HCC 2998", "value": "22.1 µM (inactive)"}, {"measurement": "GI50", "setting": "HOP-92", "value": "18.5 µM (inactive)"}, {"measurement": "GI50", "setting": "786-0", "value": "28.7 µM (inactive)"}, {"measurement": "GI50", "setting": "NCI-H522", "value": "19.7 µM (inactive)"}, {"measurement": "GI50", "setting": "EKVX", "value": "25.1 µM (inactive)"}, {"measurement": "GI50", "setting": "SNB-19", "value": "40.4 µM (inactive)"}]}
